In brackets after ≈: the same amount, converted by molar mass.
Columns and labels:
[1] = species: Rattus norvegicus; test: Hepatic blood flow in rat; format: ADME, organism-based, Liver
[2] = species: Homo sapiens; test: Hepatic blood flow in human; format: ADME, organism-based, Liver
[3] = Aqueous solubility of the compound at pH 7.4; format: physicochemical; conditions: buffer
[4] = Volume of distribution at steady state in Wistar rat at 1 umol/kg, iv; format: ADME, organism-based, Wister; conditions: in vivo, read-out: Vdss
[5] = Oral bioavailability in Wistar rat at 10 umol/kg; format: ADME, organism-based, Wister; conditions: in vivo
[6] = AUC (0 to infinity) in Wistar rat at 10 umol/kg, po; format: ADME, organism-based, Wister; parameters: dose 10 umol/kg, route oral, time infinity; conditions: plasma
[7] = Cmax in Wistar rat at 10 umol/kg, po; format: ADME, organism-based, Wister; parameters: dose 10 umol/kg, route oral; conditions: in vivo

Row | SMILES | QH [1] | QH [2] | solubility [3] | Vd [4] | bioavailability [5] | AUC(0-inf) [6] | Cmax [7]
1 | CC(C)(C)c1cc(NC(=O)N2CCCN(C(=O)N3CCS(=O)(=O)CC3)CC2)no1 | 42% | < 24% | 18 µg/mL (≈ 42.1 µM) |  |  |  | 
2 | CC(C)(C)c1cc(NC(=O)N2CCCN(C(=O)C3CCOCC3)CC2)no1 | 35% | < 24% | > 37 µg/mL | 0.87 L/kg | 28% | 1.38 µM·h | 1760 ng/mL
3 | CC(C)(C)c1cc(NC(=O)N2CCCN(C(=O)C3CCOCC3)CC2)on1 | < 23% | < 24% | > 37 µg/mL |  |  |  | 
4 | CCCCc1ccc(NC(=O)N2CCCN(C(=O)CCC3CCCC3)CC2)cc1 |  |  | 3 µg/mL (≈ 7.51 µM) |  |  |  | 
5 | CC(C)(C)c1cc(NC(=O)N2CCCN(C(=O)CN3CCS(=O)(=O)CC3)CC2)no1 | 27% | 50% | > 96 µg/mL |  |  |  | 

From ChEMBL document CHEMBL1759893, “1,4-Diazepane compounds as potent and selective CB2 agonists: optimization of metabolic stability” (Bioorg Med Chem Lett, 2011)
